# Data reported in patent US20260070945A1, “MACROCYCLIC IMMUNOMODULATORS” (Bristol-Myers Squibb Company, priority 2022, published 2026).
# Where a SMILES comes first, the peptide text is derived from it. Bridges are numbered along the chain shown (N, C = ends). [ ]: non-standard residue; d: D form. The star is where a group is joined. ξ: configuration not given here. Trp(βS-Me) = C[C@@H](c1c[nH]c2ccccc12)[C@H](N)C(=O)O; Phe(3-CF3) = N[C@@H](Cc1cccc(C(F)(F)F)c1)C(=O)O; Phe(4-CF3) = N[C@@H](Cc1ccc(C(F)(F)F)cc1)C(=O)O; Phe(4-COOH) = N[C@@H](Cc1ccc(C(=O)O)cc1)C(=O)O; Bip = N[C@@H](Cc1ccc(-c2ccccc2)cc1)C(=O)O; Phe(3-Me) = Cc1cccc(C[C@H](N)C(=O)O)c1; NH(CH2)12COOH = O=C(O)CCCCCCCCCCCCN*; Val(3-OH) = CC(C)(O)[C@H](N)C(=O)O; 4Pal = N[C@@H](Cc1ccncc1)C(=O)O; Cha = N[C@@H](CC1CCCCC1)C(=O)O; Cit = NC(=O)NCCC[C@H](N)C(=O)O; Thr(3ξ) = CC(O)[C@H](N)C(=O)O; hSer = N[C@@H](CCO)C(=O)O; Carboxymethyl = O=C(O)C*; NMeA = CN[C@@H](C)C(=O)O; Orn = NCCC[C@H](N)C(=O)O; Pra = C#CC[C@H](N)C(=O)O; Aun = NCCCCCCCCCCC(=O)O; Dab = NCC[C@H](N)C(=O)O; Dap = NC[C@H](N)C(=O)O; AEEA = NCCOCCOCC(=O)O; Ac3c = NC1(C(=O)O)CC1
# Target: T1, PD-1/PD-L1 interaction (PE-labeled human PD-L1-Ig binding to Jurkat cell line over-expressing human PD-1) (Homo sapiens, UniProt Q15116)
# T1 construct: expressed in transfected cells; host or cells: Jurkat
# Test: Jurkat-PD-1 Cell Binding High-Content Screening Assay (CBA)
# Conditions: Jurkat-hPD-1 cells, PE-labeled PD-L1-Ig 20 nM final; read-out: Jurkat HPD1 PDL1 IC50
# Outline: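 Binding of 20 nM (final) PE-tagged PD-L1-Ig to compound-pretreated Jurkat-hPD-1 cells was measured by high-content imaging after 1 h. Pretreatment ran 2 h at 37 °C in DMEM with 10% fetal calf serum.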
# T1 sequence (Q15116 25-288): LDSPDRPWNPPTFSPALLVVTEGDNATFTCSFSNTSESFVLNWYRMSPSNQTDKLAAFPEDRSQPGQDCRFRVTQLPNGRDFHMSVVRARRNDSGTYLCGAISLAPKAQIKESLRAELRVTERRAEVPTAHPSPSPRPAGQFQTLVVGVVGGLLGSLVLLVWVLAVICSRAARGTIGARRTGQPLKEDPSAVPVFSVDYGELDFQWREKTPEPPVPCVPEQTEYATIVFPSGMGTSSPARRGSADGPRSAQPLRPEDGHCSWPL
row,IC50 [nM],SMILES
1,39.1,CC(C)C[C@@H]1NC(=O)[C@H]([C@@H](C)c2c[nH]c3ccccc23)NC(=O)[C@H](CC(=O)O)NC(=O)[C@H](Cc2ccc(OCC(=O)O)cc2)NC(=O)[C@H](Cc2ccc(OCC(=O)O)cc2)NC(=O)CSC[C@@H](C(=O)NC2(C(=O)NCCOCCOCC(=O)NCCCCCCCCCCC(=O)O)CC2)NC(=O)[C@H](CCCNC(=N)N)NC(=O)[C@H](C(C)C)NC(=O)[C@H](CC2CCCCC2)NC(=O)[C@H](CCN)NC(=O)[C@@H](CC(C)C)NC(=O)[C@H](C)N(C)C(=O)[C@H](C(C)C)NC(=O)[C@H](Cc2ccc(-c3ccccc3)cc2)NC1=O [Example 1271] ({CH2CO}-Y(Carboxymethyl)Y(Carboxymethyl)D[Trp(βS-Me)]L[Bip]V[NMeA][dL][Dab][Cha]VRC[Ac3c][AEEA][Aun]-OH; thioether N-14)
2,14.9,C#CC[C@H](NC(=O)[C@H](CCN)NC(=O)[C@@H]1CSCC(=O)N[C@@H]([C@@H](C)O)C(=O)N[C@@H](Cc2ccc(OCC(=O)O)cc2)C(=O)N[C@@H](CC(=O)O)C(=O)N[C@@H](Cc2cccc(C(F)(F)F)c2)C(=O)N[C@@H](Cc2ccc(C(=O)O)cc2)C(=O)N[C@@H](Cc2ccc(-c3ccccc3)cc2)C(=O)N[C@@H](Cc2ccc(OCC(=O)O)cc2)C(=O)N(C)[C@@H](C)C(=O)N[C@H](CC(C)C)C(=O)N[C@@H](CCN)C(=O)N[C@@H](CC2CCCCC2)C(=O)N[C@@H](C(C)C)C(=O)N[C@@H]([C@@H](C)O)C(=O)N1)C(=O)NCCCCCCCCCCC(=O)O [Example 1238] ({CH2CO}-TY(Carboxymethyl)D[Phe(3-CF3)][Phe(4-COOH)][Bip]Y(Carboxymethyl)[NMeA][dL][Dab][Cha]VTC[Dab][Pra][Aun]-OH; thioether N-14)
3,38.1,Cc1cccc(C[C@@H]2NC(=O)[C@H](CC(=O)O)NC(=O)[C@H](Cc3ccc(C(=O)O)cc3)NC(=O)[C@H](Cc3ccc(OCC(=O)O)cc3)NC(=O)CSC[C@@H](C(=O)NCCCCCCCCCCC(=O)O)NC(=O)[C@H](C(C)O)NC(=O)[C@H](C(C)C)NC(=O)[C@H](CC3CCCCC3)NC(=O)[C@H](CCN)NC(=O)[C@@H](CC(C)C)NC(=O)[C@H](C)N(C)C(=O)[C@H](CCCNC(N)=O)NC(=O)[C@H](Cc3ccc(-c4ccccc4)cc3)NC(=O)[C@H](CC(C)C)NC2=O)c1 (stereo partly drawn) [Example 2330] ({CH2CO}-Y(Carboxymethyl)[Phe(4-COOH)]D[Phe(3-Me)]L[Bip][Cit][NMeA][dL][Dab][Cha]V[Thr(3ξ)]C[Aun]-OH; thioether N-14)
4,22.8,Cc1cccc(C[C@@H]2NC(=O)[C@H](CC(=O)O)NC(=O)[C@H](Cc3ccc(OCC(=O)O)cc3)NC(=O)[C@H](Cc3ccc(OCC(=O)O)cc3)NC(=O)CSC[C@@H](C(=O)N[C@@H](CN)C(=O)NCCCCCCCCCCC(=O)O)NC(=O)[C@H](C(C)O)NC(=O)[C@H](C(C)C)NC(=O)[C@H](CC3CCCCC3)NC(=O)[C@H](CCN)NC(=O)[C@@H](CC(C)C)NC(=O)[C@H](C)N(C)C(=O)[C@H](CCCNC(N)=O)NC(=O)[C@H](Cc3ccc(-c4ccccc4)cc3)NC(=O)[C@H](CC(C)C)NC2=O)c1 (stereo partly drawn) [Example 2334] ({CH2CO}-Y(Carboxymethyl)Y(Carboxymethyl)D[Phe(3-Me)]L[Bip][Cit][NMeA][dL][Dab][Cha]V[Thr(3ξ)]C[Dap][Aun]-OH; thioether N-14)
5,11.5,Cc1cccc(C[C@@H]2NC(=O)[C@H](CC(=O)O)NC(=O)[C@H](Cc3ccc(C(=O)O)cc3)NC(=O)[C@H](Cc3ccc(OCC(=O)O)cc3)NC(=O)CSC[C@@H](C(=O)NCCOCCOCC(=O)NCCCCCCCCCCC(=O)O)NC(=O)[C@H](CCO)NC(=O)[C@H](C(C)C)NC(=O)[C@H](CC3CCCCC3)NC(=O)[C@H](CCN)NC(=O)[C@@H](CC(C)C)NC(=O)[C@H](C)N(C)C(=O)[C@H](C(C)C)NC(=O)[C@H](Cc3ccc(-c4ccccc4)cc3)NC(=O)[C@H](C(C)C)NC2=O)c1 [Example 2217] ({CH2CO}-Y(Carboxymethyl)[Phe(4-COOH)]D[Phe(3-Me)]V[Bip]V[NMeA][dL][Dab][Cha]V[hSer]C[AEEA][Aun]-OH; thioether N-14)
6,25.1,Cc1cccc(C[C@@H]2NC(=O)[C@H](CC(=O)O)NC(=O)[C@H](Cc3ccc(OCC(=O)O)cc3)NC(=O)[C@H]([C@@H](C)O)NC(=O)CSC[C@@H](C(=O)N[C@@H](CCN)C(=O)NCCOCCOCC(=O)NCCCCCCCCCCC(=O)O)NC(=O)[C@H]([C@@H](C)O)NC(=O)[C@H](C(C)C)NC(=O)[C@H](CC3CCCCC3)NC(=O)[C@H](CC(N)=O)NC(=O)[C@@H](CC(C)C)NC(=O)[C@H](C)N(C)C(=O)[C@H](Cc3ccc(OCC(=O)O)cc3)NC(=O)[C@H](Cc3ccc(-c4ccccc4)cc3)NC(=O)[C@H](Cc3ccc(OCC(=O)O)cc3)NC2=O)c1 [Example 1362] ({CH2CO}-TY(Carboxymethyl)D[Phe(3-Me)]Y(Carboxymethyl)[Bip]Y(Carboxymethyl)[NMeA][dL]N[Cha]VTC[Dab][AEEA][Aun]-OH; thioether N-14)
7,7.5,CC(=O)NCCCC[C@@H]1NC(=O)[C@H](Cc2ccc(-c3ccccc3)cc2)NC(=O)[C@H](C(C)C)NC(=O)[C@H](Cc2cccc(C)c2)NC(=O)[C@H](CC(=O)O)NC(=O)[C@H](Cc2ccc(OCC(=O)O)cc2)NC(=O)[C@H](CCCNC(=N)N)NC(=O)CSC[C@@H](C(=O)NCCOCCOCC(=O)NCCCCCCCCCCC(=O)O)NC(=O)[C@H](C(C)O)NC(=O)[C@H](C(C)C)NC(=O)[C@H](CC2CCCCC2)NC(=O)[C@H](CCN)NC(=O)[C@@H](CC(C)C)NC(=O)[C@H](C)N(C)C1=O (stereo partly drawn) [Example 2289] ({CH2CO}-RY(Carboxymethyl)D[Phe(3-Me)]V[Bip]K(Ac)[NMeA][dL][Dab][Cha]V[Thr(3ξ)]C[AEEA][Aun]-OH; thioether N-14)

# Same assay, conditions: PE-labeled PD-L1-Ig 20 nM final, Jurkat-hPD-1 cells; read-out: Jurkat HPD1 PDL1 IC50
row,IC50 [nM],SMILES
1,9.1,CC(=O)NCCCC[C@@H]1NC(=O)[C@H](C(C)(C)O)NC(=O)[C@H](CC2CCCCC2)NC(=O)[C@H](CCN)NC(=O)[C@@H](CC(C)C)NC(=O)[C@H](C)N(C)C(=O)[C@H](CCCNC(=N)N)NC(=O)[C@H](Cc2ccc(-c3ccccc3)cc2)NC(=O)[C@H](Cc2ccc(C(=O)O)cc2)NC(=O)[C@H](Cc2cccc(C(F)(F)F)c2)NC(=O)[C@H](CC(=O)O)NC(=O)[C@H](Cc2ccc(OCC(=O)O)cc2)NC(=O)[C@H](Cc2ccc(OCC(=O)O)cc2)NC(=O)CSC[C@@H](C(=O)N[C@@H](CCN)C(=O)NCCCCCCCCCCCCC(=O)O)NC1=O [Example 2638] ({CH2CO}-Y(Carboxymethyl)Y(Carboxymethyl)D[Phe(3-CF3)][Phe(4-COOH)][Bip]R[NMeA][dL][Dab][Cha][Val(3-OH)]K(Ac)C[Dab]-{NH(CH2)12COOH}; thioether N-14)
2,36.2,Cc1cccc(C[C@@H]2NC(=O)[C@H](CC(=O)O)NC(=O)[C@H](Cc3ccc(C(=O)O)cc3)NC(=O)[C@H](Cc3ccncc3)NC(=O)CSC[C@@H](C(=O)N[C@@H](CCCN)C(=O)NCCOCCOCC(=O)NCCCCCCCCCCC(=O)O)NC(=O)[C@H](CCC(=O)O)NC(=O)[C@H](C(C)(C)O)NC(=O)[C@H](CC3CCCCC3)NC(=O)[C@H](Cc3cnc[nH]3)NC(=O)[C@@H](CC(C)C)NC(=O)[C@H](C)N(C)C(=O)[C@H](Cc3ccc(C(=O)O)cc3)NC(=O)[C@H](Cc3ccc(-c4ccccc4)cc3)NC(=O)[C@H](Cc3ccc(C(=O)O)cc3)NC2=O)c1 [Example 2498] ({CH2CO}-[4Pal][Phe(4-COOH)]D[Phe(3-Me)][Phe(4-COOH)][Bip][Phe(4-COOH)][NMeA][dL]H[Cha][Val(3-OH)]EC[Orn][AEEA][Aun]-OH; thioether N-14)
3,161,Cc1cccc(C[C@@H]2NC(=O)[C@H](CC(=O)O)NC(=O)[C@H](Cc3ccc(OCC(=O)O)cc3)NC(=O)[C@H](Cc3ccncc3)NC(=O)CSC[C@@H](C(=O)N[C@@H](CCN)C(=O)NCCCCCCCCCCC(=O)O)NC(=O)[C@H](Cc3cnc[nH]3)NC(=O)[C@H](C(C)(C)O)NC(=O)[C@H](CC3CCCCC3)NC(=O)[C@H](CCN)NC(=O)[C@@H](CC(C)C)NC(=O)[C@H](C)N(C)C(=O)[C@H](Cc3ccc(OCC(=O)O)cc3)NC(=O)[C@H](Cc3ccc(-c4ccccc4)cc3)NC(=O)[C@H](Cc3ccc(OCC(=O)O)cc3)NC2=O)c1 [Example 2467] ({CH2CO}-[4Pal]Y(Carboxymethyl)D[Phe(3-Me)]Y(Carboxymethyl)[Bip]Y(Carboxymethyl)[NMeA][dL][Dab][Cha][Val(3-OH)]HC[Dab][Aun]-OH; thioether N-14)
4,46,Cc1cccc(C[C@@H]2NC(=O)[C@H](CC(=O)O)NC(=O)[C@H](Cc3ccc(C(=O)O)cc3)NC(=O)[C@H](Cc3ccncc3)NC(=O)CSC[C@@H](C(=O)NCCOCCOCC(=O)NCCCCCCCCCCC(=O)O)NC(=O)[C@H](Cc3cnc[nH]3)NC(=O)[C@H](C(C)(C)O)NC(=O)[C@H](CC3CCCCC3)NC(=O)[C@H](CCN)NC(=O)[C@@H](CC(C)C)NC(=O)[C@H](C)N(C)C(=O)[C@H](Cc3ccc(OCC(=O)O)cc3)NC(=O)[C@H](Cc3ccc(-c4ccccc4)cc3)NC(=O)[C@H](Cc3ccc(OCC(=O)O)cc3)NC2=O)c1 [Example 2464] ({CH2CO}-[4Pal][Phe(4-COOH)]D[Phe(3-Me)]Y(Carboxymethyl)[Bip]Y(Carboxymethyl)[NMeA][dL][Dab][Cha][Val(3-OH)]HC[AEEA][Aun]-OH; thioether N-14)
5,83.9,CC(=O)NCCCC[C@@H]1NC(=O)[C@H](C(C)(C)O)NC(=O)[C@H](CC2CCCCC2)NC(=O)[C@H](CCN)NC(=O)[C@@H](CC(C)C)NC(=O)[C@H](C)N(C)C(=O)[C@H](CCC(N)=O)NC(=O)[C@H](Cc2ccc(-c3ccccc3)cc2)NC(=O)[C@H](Cc2ccc(OCC(=O)O)cc2)NC(=O)[C@H](Cc2cccc(C(F)(F)F)c2)NC(=O)[C@H](CC(=O)O)NC(=O)[C@H](Cc2ccc(OCC(=O)O)cc2)NC(=O)[C@H](Cc2ccc(C(F)(F)F)cc2)NC(=O)CSC[C@@H](C(=O)N[C@@H](CCN)C(=O)NCCCCCCCCCCCCC(=O)O)NC1=O [Example 2622] ({CH2CO}-[Phe(4-CF3)]Y(Carboxymethyl)D[Phe(3-CF3)]Y(Carboxymethyl)[Bip]Q[NMeA][dL][Dab][Cha][Val(3-OH)]K(Ac)C[Dab]-{NH(CH2)12COOH}; thioether N-14)
